We go through 10 compounds from patent US7910751B2, “Heterocyclidene acetamide derivative” (Mochida Pharmaceutical Co., Ltd., priority 2005, dated 2011).

Each structure is given as a SMILES string.

In this experiment the target is T1, human TRPV1 (Homo sapiens, UniProt Q8NER1).
T1 construct: expressed in transfected cells; host or cells: CHO-K1
T1 sequence (Q8NER1 whole entry): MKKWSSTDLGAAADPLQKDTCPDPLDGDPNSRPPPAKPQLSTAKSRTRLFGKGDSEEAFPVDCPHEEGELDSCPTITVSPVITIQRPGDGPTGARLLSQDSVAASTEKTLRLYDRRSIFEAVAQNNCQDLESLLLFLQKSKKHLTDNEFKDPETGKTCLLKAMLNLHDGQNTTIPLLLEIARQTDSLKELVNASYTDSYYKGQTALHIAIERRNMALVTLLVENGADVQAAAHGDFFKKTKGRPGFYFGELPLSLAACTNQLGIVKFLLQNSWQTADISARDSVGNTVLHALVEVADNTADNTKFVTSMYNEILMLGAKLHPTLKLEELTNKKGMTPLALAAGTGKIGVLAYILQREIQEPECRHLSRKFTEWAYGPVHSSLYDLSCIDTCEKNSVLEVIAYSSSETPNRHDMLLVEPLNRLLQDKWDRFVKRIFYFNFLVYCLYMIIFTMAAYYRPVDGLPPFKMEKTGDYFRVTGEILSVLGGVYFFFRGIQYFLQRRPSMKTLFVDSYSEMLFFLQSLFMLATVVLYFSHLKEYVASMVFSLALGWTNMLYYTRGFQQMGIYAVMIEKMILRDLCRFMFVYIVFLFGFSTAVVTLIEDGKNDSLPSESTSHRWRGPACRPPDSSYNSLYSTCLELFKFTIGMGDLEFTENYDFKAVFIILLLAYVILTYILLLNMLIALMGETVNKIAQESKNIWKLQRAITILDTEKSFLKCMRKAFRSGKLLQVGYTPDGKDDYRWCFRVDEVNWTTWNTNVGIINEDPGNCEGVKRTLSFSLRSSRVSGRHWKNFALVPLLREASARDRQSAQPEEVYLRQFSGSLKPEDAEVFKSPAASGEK
Briefly: Measurement of capsaicin-induced Ca influx in human TRPV1 transformed CHO cell line using FDSS-6000. The experiment is classed as cell-based. Particulars: concentration at which the capsaicin concentration-reaction curve is shifted two times to the right, human TRPV1 transformed CHO cells. The text has this: [Measurement of Capsaicin-Induced Ca Influx in Human TRPV1 Transformed CHO Cell Line]
(1) Establishment of Human TRPV1 Transformed CHO Cell Line
Human vanilloid receptor 1 (hTRPV1) cDNA was cloned from a human brain. The cloned hTRPV1 cDNA was incorporated in a pCAGGS vector. The gene of the vector was introduced to a CHO-K1 cell line, thus performing transformation. Clones obtained by limiting dilution were stimulated with capsaicin. Clones with a high responsiveness were selected using an increase in the Ca concentration as an indicator. The selected clones were used for the following experiment.
(2) Measurement of Ca Influx Using FDSS-6000
The human TRPV1 transformed CHO cells were seeded in a 96-well plate (with black walls and transparent bottoms, manufactured by Greiner) at a density of 40,000 cells per well. The cells were cultured at 37° C. in 5% CO2 for one night. A loading solution of FLIPR Calcium 3 assay kit (manufactured by Molecular Devices Corporation) containing 2.5 mmol/L of probenecid was then added to each of the wells in the same amount as the culture medium, and the cells were cultured at 37° C. for 60 minutes. After the cells were stimulated with capsaicin (1 nmol/L to 1 μmol/L), the change in the Ca concentration in the cells was measured using FDSS-6000 (λex: 480 nm, λem: 540 nm, manufactured by Hamamatsu Photonics K.K.) for three minutes. The integrated values of the increase rate of the Ca concentration in the cells were calculated for a group treated with the compounds of the present invention and a group treated with a medium, thus allowing capsaicin concentration-reaction curves to be obtained. A concentration (A2 value) of each of the compounds of the present invention, at which the capsaicin concentration-reaction curve obtained when the cells were treated with the medium was shifted two times to the right side, was calculated. The inhibiting effects of the test compounds were compared using this value as an indicator.
In the case where a compound of the present invention is an agonist, when the cells are treated with the compound of the present invention prior to the capsaicin stimulation, the Ca influx is observed. In Table 1, compounds of the present invention having an A2 value of less than 100 nM are represented by A, and compounds having an A2 value of 100 nM or more are represented by B. When the A2 values of the compounds of the present invention were measured by the above-described method, the compounds have an intensity of 1 μM or less.
Turning to `CC(CNC(=O)/C=C1\CCCOc2cc(C(F)(F)F)ccc21)c1cccc2c1CC(O)CC2` (stereo not shown) [Example 227, (E)-2-(8-trifluoromethyl-3,4-dihydrobenzo[b]oxepin-5(2H)-ylidene)-N-(2-(7-hydroxy-5,6,7,8-tetrahydronaphthalen-1-yl)propyl)acetamide], the “A2 VALUE” is given as “A (compounds of the present invention having an A2 value of less than 100 nM are represented by A)”.
Under `COC(=O)CCC(=O)N1CC/C(=C\C(=O)Nc2ccc3cccnc3c2)c2ccc(C(F)(F)F)cc21` [Example 101, (E)-2-(7-trifluoromethyl-2,3-dihydro-1-(3-(carbomethoxy)propanoyl)quinolin-4(1H)-ylidene)-N-(quinolin-7-yl)acetamide] stands “A (compounds of the present invention having an A2 value of less than 100 nM are represented by A)”.
Turning to `O=C(/C=C1\CCOc2cc(C(F)(F)F)ccc21)Nc1cccc2c1CC(O)CO2` (stereo not shown) [Example 125, (E)-N-(3-hydroxy-chroman-5-yl)-2-(7-trifluoromethyl-chroman-4-ylidene)acetamide], the “A2 VALUE” is “A (compounds of the present invention having an A2 value of less than 100 nM are represented by A)”.
To `O=C(/C=C1\CCOc2cc(C(F)(F)F)ccc21)Nc1cccc2cnccc12` [Example 7, (E)-2-(7-trifluoromethyl-chroman-4-ylidene)-N-(isoquinolin-5-yl)acetamide] belongs “A (compounds of the present invention having an A2 value of less than 100 nM are represented by A)”; to `O=C(/C=C1\CCOc2cc(C(F)(F)F)ccc21)Nc1cccc2c1CC(O)CC2` (stereo not shown) [Example 70, (E)-2-(7-trifluoromethyl-chroman-4-ylidene)-N-(7-hydroxy-5,6,7,8-tetrahydronaphthalen-1-yl)acetamide], “A (compounds of the present invention having an A2 value of less than 100 nM are represented by A)”.
Under `O=C(/C=C1\CCCOc2cc(C(F)(F)F)ccc21)Nc1cccc2c1CC(O)C2` (stereo not shown) [Example 163, (E)-2-(8-trifluoromethyl-3,4-dihydrobenzo[b]oxepin-5(2H)-ylidene)-N-(indan-2-ol-4-yl)acetamide] stands “A (compounds of the present invention having an A2 value of less than 100 nM are represented by A)”; under `CC(C)(C)c1ccc(NC(=O)/C=C2\CCCOc3cc(C(F)(F)F)ccc32)cc1` [Example 14, (E)-N-(4-tert-butylphenyl)-2-(8-trifluoromethyl-3,4-dihydrobenzo[b]oxepin-5(2H)-ylidene)acetamide], “A (compounds of the present invention having an A2 value of less than 100 nM are represented by A)”.
To `CN1CCC/C(=C\C(=O)Nc2cccc3c2CC(O)CC3)c2ccc(C(F)(F)F)cc21` (stereo not shown) [Example 199, (E)-2-(1-methyl-8-trifluoromethyl-1,2,3,4-tetrahydro-5H-benzo[b]azepin-5-ylidene)-N-(7-hydroxy-5,6,7,8-tetrahydronaphthalen-1-yl)acetamide] belongs “A (compounds of the present invention having an A2 value of less than 100 nM are represented by A)”.
On to `CC1(C)CC1C(=O)N1CC/C(=C\C(=O)Nc2cccc3c2CC(O)CC3)c2ccc(C(F)(F)F)cc21` (stereo not shown) [Example 109, (E)-2-(7-trifluoromethyl-2,3-dihydro-1-((2,2-dimethylcyclopropane)carbonyl)quinolin-4(1H)-ylidene)-N-(7-hydroxy-5,6,7,8-tetrahydronaphthalen-1-yl)acetamide], for which the “A2 VALUE” is “A (compounds of the present invention having an A2 value of less than 100 nM are represented by A)”.
As for `O=C(/C=C1\CCCOc2cc(C(F)(F)F)ccc21)Nc1cccc2c1CC(O)C(O)C2` (stereo not drawn) [Example 65, (E)-2-(8-trifluoromethyl-3,4-dihydrobenzo[b]oxepin-5-(2H)-ylidene)-N-(trans-6,7-dihydroxy-5,6,7,8-tetrahydronaphthalen-1-yl)acetamide], the “A2 VALUE” is “A (compounds of the present invention having an A2 value of less than 100 nM are represented by A)”.
